The nature of test [1]: Inhibitory concentration measured against the prostate cancer cell line DU145; IA:Inactive. It is filed as functional, cell-based, Homo sapiens. Conditions: cancer cell lines; call rule not given here.
The nature of test [2]: Inhibitory concentration measured against the prostate cancer cell line DU145. It is filed as functional, cell-based, Homo sapiens. To be noted: cancer cell lines.

From ChEMBL document CHEMBL1144283, “Truncated azinomycin analogues intercalate into DNA” (Bioorg Med Chem Lett, 2005) come the findings set out here.

For `COc1cc(C(=O)NCCN2CCCC(Cl)C2)c2cccc(C)c2c1` (stereo not drawn), the IC50 result in test [1] is given as “Not Active”.
Take `COc1cc(C(=O)NCCN2CCCC(O)C2)c2cccc(C)c2c1` (stereo not drawn): in test [1], the IC50 result was “Not Active”.
Consider `COc1cc(C(=O)O[C@H](C(N)=O)[C@]2(C)CO2)c2cccc(C)c2c1`, for which, in test [2], the half-inhibitory concentration (IC50) was 50 nM.
